Assay [1] relates to ruminal fluid (rumen microbes). In words: In vitro methane production in batch culture (Example 1). The following applies: corn silage-based diet. The class given is cell-based, Angus crossbred steers. The procedure:
The in vitro incubations were conducted on three separate days (replicates). A representative sample of digesta was collected from different places in the rumen of ruminally cannulated steers and strained through 4 layers of cheesecloth, placed in pre-warmed thermos containers, and transported to the laboratory within 30 minutes after the collection. In the laboratory, the ruminal fluid from the two steers was maintained under constant CO2-flux and was combined in equal proportions. This combined ruminal fluid was mixed with McDougall's buffer (McDougall, 1948) with and without 0.077 g/liter of 10 wt. % ammonium sulfate enriched with ^15N in relation 1:4, and it was used as an inoculum. […] At the end of the 24 hours incubation, the final pH was recorded, the bottles were placed on ice to prevent further microbial fermentation and two 10-ml samples were collected and acidified by adding 20 μl of a 20 vol/vol % of H2SO4-solution and were frozen at minus 20° C. until further analysis. […]
The amount of methane produced was determined by measuring total gas production and the contribution of methane to it. The production of gas was recorded using an Ankom Gas Monitoring System from Ankom Technologies. […] A gas subsample was analyzed to measure methane concentration and calculate the total methane production during the fermentation. […]

The test system of assay [2] is crossbred yearling steers. The experiment in a line: Animal growth performance with NPN supplementation (Example 2). Type of assay: in vivo. From the text: A total of 72 crossbred yearling steers [303 kg±29 kg initial body weight (BW) were stratified by body weight (BW) and randomly allocated to three treatments. All steers consumed a basal diet of corn silage, cotton-gin trash, and a premix of vitamins and minerals.
The steers were housed in pens (8 steers/pen, 3 pens/treatment). The steers were supplemented with three different NPN-sources on an isonitrogenous basis, considering as reference the N provided by urea when included at 1 wt. % of the diet in dry matter (DM-basis.
In Table 5, the composition of the basal diet supplemented with three different types of NPN, i.e. urea (Urea) (46% N, Yara International), a mixture of urea and biuret (UB) (41% N) and a mixture of urea, biuret and nitrate according to the present disclosure (“UBN”) (35% N, 21.3% NO3) is shown.
From day −17 to day −16 relative to the beginning of the experimental period, the steers received 20% of their total supplemental NPN.
From day −15 to day −12 relative to the beginning of the experimental period, the steers received 40% of their total supplemental NPN.
From day −11 to day −8 relative to the beginning of the experimental period, the steers received 60% of their total supplemental NPN.
From day −7 to day −3 relative to the beginning of the experimental period, the steers received 80% of their total supplemental NPN.
From day −2 to the beginning of the experimental period (day 0), the steers received 100% of their total supplemental NPN.
The gain to feed ratio (G: F) was computed as the ratio of the average daily gain (ADG) to daily dry matter intake (DMI). The feed intake was recorded daily. The individual intake was determined via the GrowSafe® intake monitoring system. In cattle management, GrowSafe Systems is a commonly used tool to closely monitor individual animal feeding data using radio frequency identification (RFID) tag technology. The animals are equipped with a unique RFID tag that is read by the feed bunks each time the animal lowers its head into the bunk to consume feed. Average daily weight gain (ADG) and feed efficiency were calculated during the performance evaluation. The ADG was determined by the difference between the final BW and the initial BW divided by the number of days of the performance evaluation (56 days). The initial BW was calculated as the average unshrunk BW of heifers on days 16 and 17. The final BW was the average unshrunk BW measured on days 72 and 73. The unshrunk BW was obtained every 14 days.
In Table 6, the effect of NPN supplementation with Urea, UB and UBN on growth performance is shown. More in particular, the initial and the final BW and the ADG, all expressed in kg, the dry matter intake (DMI) expressed in kg/day and in percentage of BW, the gain to feed ratio (G:F) expressed in kg/kg, the net energy of gain (NEg) expressed in Mcal/kg of DM and the plasma urea nitrogen (PUN) expressed in […] are shown.

One molecule from patent US20250144053A1, “A MIXTURE OF UREA, BIURET AND NITRATE AS A DIETARY NON-PROTEIN NITROGEN-SOURCE FOR RUMINANTS AND USES THEREOF” (Yara International ASA, priority 2022, published 2025) can be followed below.

Regarding `NC(N)=O` [Urea, urea], in assay [1] (per g organic matter digested), the “Methane production, mM/g OMd” value is 6.86 mM/g OMd. For the same molecule, in assay [1] (per g organic matter incubated), the “Methane production, mM/g OMi” value is given as 1.23 mM/g OMi. For the same molecule, the ADG came to 0.78 kg in assay [2] (days 0-14) and 0.81 kg in assay [2] (days 0-28). For the same molecule, the “G:F” value is reported as 0.10 kg/kg in assay [2] (days 0-14), 0.11 kg/kg in assay [2] (days 0-28), 0.14 kg/kg in assay [2] (days 0-42) and 0.14 kg/kg in assay [2] (days 0-56). For the same molecule, the NEg in assay [2] (net energy of gain) is 0.55 Mcal/kg of DM.
